Experimental data as given in PMC12040169 (PLOS Biology, 2025).

Experiment: in vitro
Conditions: human, hela cells, % viability

Row | SMILES | viability at 28.5 h, 10 µM | viability at 28.5 h, 10 µM (bulk resorufin, single well)
1 | O=c1[nH]cc(-c2ccc(F)cc2)cc1CNCc1ccccc1F [CBK284696] | 86.1% | –
2 | COc1ccc(-c2c[nH]c([C@@H]3COCCN3Cc3cccc(C#N)c3)n2)cc1 [CBK289298] | 96% | –
3 | CC(/C=C1\SC(=S)N(C(Cc2ccccc2)C(=O)O)C1=O)=C\c1ccccc1 (stereo not drawn) [CBK263524] | 91.7% | –
4 | O=C(O)Cc1csc(SCc2cc(F)cc3c2OC(c2ccccc2)OC3)n1 (stereo not drawn) [CBK295158] | 107% | –
5 | CCOC(=O)COc1c(Cl)cc(/C=C/c2[nH]c(=O)[nH]c(=O)c2[N+](=O)[O-])cc1Cl [CBK267003] | 91.2% | –
6 | Cc1ccc(C(=O)O)cc1S(=O)(=O)N(CCO)CCO [CBK267335] | 102% | –
7 | CCOc1ccc2[nH]c(=O)c(/C=C3\SC(=S)N(CCC(=O)O)C3=O)cc2c1 [CBK265213] | 89.7% | –
8 | CCOC(=O)c1ccccc1OC(=O)c1ccc2c(c1)C1C=CCC1C(C(=O)O)N2 (stereo not drawn) [CBK265155] | 101% | –
9 | CN(Cc1ccco1)C(=O)NC1CCCc2c1cnn2CCO (stereo not drawn) [CBK306290] | 108% | –
10 | COC(=O)C1CCN(Cc2ccc(-c3nnn(CC(=O)NCc4ccc(C)cc4)n3)cc2)C1 (stereo not drawn) [CBK155406T] | 105% | –
11 | Brc1ccccc1OCCc1ccccc1 [CBK004519] | 95.4% | –
12 | CC1c2ccsc2CCN1S(C)(=O)=O (stereo not drawn) [CBK023574] | 86.2% | –
13 | CC1=C[C@@H](CNS(C)(=O)=O)[C@H](C(C)C)C[C@H]1CC(=O)N1CCOCC1 [CBK289050] | 89.3% | –
14 | O=C(O)CCSc1nc(-c2ccccc2)c(-c2ccccc2)[nH]1 [CBK264228] | 109% | –
15 | CCCCN=C(NCCCn1cccn1)N1CCCN(C(C)=O)CC1 [CBK304273I] | 107% | –
16 | CC1CCCCN1S(=O)(=O)c1ccc(NC(=O)CCn2cnc3ccccc3c2=O)cc1 (stereo not drawn) [CBK268495] | 95.5% | –
17 | OCC(O)/C=N/Nc1nc(Nc2ccccc2)nc(N2CCCCC2)n1 (stereo not drawn) [CBK262042] | 107% | –
18 | CCN(CC)c1c(C)nc2ccc(C(=O)NCc3ccc(N(C)C)cc3)cn12 [CBK145961] | 92.7% | –
19 | COc1ccc([C@@]23CC[C@@H](NS(=O)(=O)Cc4ccccc4)C[C@@H]2N(C)CC3)cc1OC [CBK056665T] | 91.4% | –
20 | O=C1N=C(NC2CC3CCC2C3)SC12CCCO2 (stereo not drawn) [CBK116312] | 110% | –
21 | COc1ccc(CNC(=O)c2cc(S(=O)(=O)N3CCCC3)cs2)cc1 [CBK307576] | 93.6% | –

Row | SMILES | viability at 28.5 h, 10 µM | viability at 28.5 h, 10 µM (bulk resorufin, single well)
22 | CS(=O)(=O)NC1CCCN(c2ccc3ccccc3n2)C1 (stereo not drawn) [CBK306457] | 99.7% | –
23 | COc1cc(CNC(=O)N2CCN(C3CCN(C)CC3)CC2)cc(OC)c1OC [CBK155893] | 93.3% | –
24 | c1ccc(Oc2cccc(OCCCCN3CCNCC3)c2)cc1 [CBK266027G] | 92.6% | –
25 | COc1ccc(NC(=O)CC(CN2CCN(c3ccc(Cl)cc3)CC2)C(=O)O)cc1 (stereo not drawn) [CBK286831] | 101% | –
26 | CCc1nc2ccc(C(=O)NC3=NN(c4ccccc4)C(=O)C3)cn2c1N(C)Cc1cccs1 [CBK145557] | 93% | –
27 | CCc1noc(C)c1C(=O)N1CCN(C2CCCC2O)CC1 (stereo not drawn) [CBK304869] | 78% | –
28 | CC(=O)N1C[C@@H]2OCC(=O)N(Cc3ccccn3)[C@@H]2C1 [CBK289245] | 95.8% | –
29 | Cc1ccc(-c2cc(C(=O)NCc3cccnc3)c3ccccc3n2)cc1C [CBK265402] | 97.5% | –
30 | COc1ccc(C(=O)C2CCN(Cc3cccc4cccnc34)CC2)cc1 [CBK295192] | 85.3% | –
31 | CC(C(=O)N1C2CCC1CC(O)(c1ccco1)C2)c1ccccc1 (stereo not drawn) [CBK284112] | 97.8% | –
32 | O[C@@H]1C[C@@H](c2nc(-c3cccnc3)no2)N(Cc2cccs2)C1 [CBK288840] | 111% | –
33 | CC(Cn1cncn1)C(=O)NC(C)C1CC2CCC1C2 (stereo not drawn) [CBK282089] | 109% | –
34 | COc1ccc(-c2nnc(SCC(=O)NC(=O)c3ccccc3)n2CC(C)C)cc1 [CBK297527] | 101% | –
35 | COC(=O)CSc1nnc(COc2ccc3c(c2)OCO3)n1-c1ccccc1 [CBK266139] | 107% | –
36 | OCCN1CCN(c2cc(Nc3ccc(Oc4ccccc4)cc3)nc3ccnn23)CC1 [CBK037185] | 94.9% | –
37 | CC(Sc1nc(N(C)C)nc(N2CCOCC2)n1)C(=O)Nc1ccc(Cl)c(Cl)c1 (stereo not drawn) [CBK269229] | 110% | –
38 | Cn1c(=O)oc2cc(S(=O)(=O)NCc3ccccc3)ccc21 [CBK267568] | 90.8% | –
39 | CCOC(=O)C1CSCCN1C(=O)c1cnn(-c2ccc(Br)cc2)c1C (stereo not drawn) [CBK304550] | 102% | –
40 | Cc1cc(C)c2nonc2c1S(=O)(=O)NCCN1CCCCC1CO (stereo not drawn) [CBK306966] | 94.8% | –
41 | C=CCn1c2cc(C)sc2c2cnn(CC(=O)OC)c(=O)c21 [CBK284166] | 89.3% | –
42 | Cc1cnn(C)c1CN1CCNC(=O)C1c1ccccc1C(F)(F)F (stereo not drawn) [CBK304260] | 86.2% | –

Row | SMILES | viability at 28.5 h, 10 µM | viability at 28.5 h, 10 µM (bulk resorufin, single well)
43 | CC(C)[C@@H](CO)Nc1nc(-c2occc2C=O)cnc1N [CBK063733] | 102% | –
44 | O=C1S/C(=C\c2ccc(O)c([N+](=O)[O-])c2)C(=O)N1Cc1ccc(Cl)cc1 [CBK102929] | 87.2% | –
45 | COCCN1CCC(CNC(=O)Nc2cc(C)ccc2F)C1 (stereo not drawn) [CBK304631] | 117% | –
46 | Cc1n[nH]c(C)c1-c1ccc2c(cnn2C)c1 [CBK307314] | 70.3% | –
47 | Cn1c(=O)sn(-c2ccccc2)c1=O [CBK113677] | 115% | –
48 | COc1ncc(-c2nccnc2N[C@@H]2CCN(Cc3ccccc3)C2)c(OC)n1 [CBK036926] | 101% | –
49 | CN(C)C(=O)[C@@]1(O)CCC2(c3ccc(Cl)cc3)CCCN(C)C2C1 (stereo partly drawn) [CBK005234] | 92.8% | –
50 | O=C(Nc1ccc2cc[nH]c2c1)c1cccnc1 [CBK160053] | 97.9% | –
51 | O=C(NCC1CCCCC1)c1ccccc1-n1cccc1 [CBK149603] | 91.7% | –
52 | Cc1nc(CC(=O)N2CCOC(c3ccc(F)cc3)C2)cs1 (stereo not drawn) [CBK305759] | 106% | –
53 | C#CCOC(=O)Nc1cnc(N2CCOCC2)c(C(F)(F)F)c1 [CBK019679] | 90.5% | –
54 | CCn1cc(CN2CCCCCC2c2cc(C)no2)c(C)n1 (stereo not drawn) [CBK282159] | 95.6% | –
55 | Cc1cccc(C)c1OCc1nnc(SCC(=O)c2ccc(F)cc2)n1C [CBK269715] | 91.2% | –
56 | CCOC(=O)CSc1c2cc3c(nc2nc(=O)n1Cc1ccccc1)CC(C)(C)OC3 [CBK018608] | 94.3% | –
57 | COc1ccc(CC(=O)NC(CCSC)c2nc3ccccc3[nH]2)cc1 (stereo not drawn) [CBK306050] | 82.6% | –
58 | COc1ccc([C@@]23CC[C@@H](NC(=O)Nc4ccc(F)c(C#N)c4)C[C@@H]2N(C)CC3)cc1OC [CBK051659T] | 84% | –
59 | COc1ccc(C(NC(=O)C2CCN(CCn3cnc4c3c(=O)n(C)c(=O)n4C)CC2)c2ccco2)cc1 (stereo not drawn) [CBK148308] | 85.8% | –
60 | CCOCCn1c(=O)c2c(nc3oc(C(C)(C)C)cn32)n(C)c1=O [CBK307567] | 103% | –
61 | CC(=O)N1CCC(C(=O)Nc2cccc(-c3ccc4c(c3)COC3(CCNCC3)O4)c2)CC1 [CBK093674] | – | 91.4%
62 | O=C(O)C1C2CCC(O2)C1C(=O)NCc1ccco1 (stereo not drawn) [CBK263675] | 96.8% | –
63 | Cc1nc(C)n(CC2CCCN(S(=O)(=O)c3cnc4ccsc4c3)C2)n1 (stereo not drawn) [CBK306274] | 84.3% | –
